# Assay results reported in patent publication US20250157614A1, “SUBSTANCE DELIVERY PLANNING SYSTEM” (Syqe Medical Ltd., priority 2019, published 2025).
# Columns and labels:
# [1] = Clinical trial: pharmacokinetic analysis of Δ9-THC plasma levels after single inhalation via metered dose inhaler
# Procedure: An objective of the trial was to evaluate the effects of a single inhalation of vaporized ground cannabis doses comprising 0.5 mg or 1 mg THC, as compared to placebo. […] The patients were licensed to use medical cannabis and were guided to refrain from using cannabis at least 12 hours prior to the trial commencement. The patients were guided how to use the inhaler device and signed a written consent.
# The trial included three sessions, with an interval of at least 48 hours between sessions. In each of the sessions, a randomized single dose or placebo was delivered to the patients via inhalation. During each session, at a plurality of pre-defined time points, the patients were cognitively tested using “Cambridge Neuropsychological Test Automated Battery”; questioned for assessment of pain (using the VAS); their blood pressure and heartrate were measured; and they were questioned regarding safety parameters, such as feeling “high”, dizziness, mouth dryness. Blood samples were collected at pre-defined time points for performing a pharmacokinetic analysis of THC (being the active substance, in accordance with some embodiments).
# chronic pain = test: Clinical trial: pain intensity (0-10 point VAS) after single inhalation via metered dose inhaler; type: in vivo, human (hospitalized adult patients)
# From the text: FIG. 5B presents effects of the three different interventions on pain intensity. About 1 VAS point decline in pain intensity was noted during the follow-up period following placebo administration.
# [2] = single inhalation of 0.5 mg Δ9-THC
# [3] = single inhalation of 1 mg Δ9-THC
# [4] = 0.5 mg dosage, observed at 120 minutes following inhalation
# [5] = 1 mg dosage, observed at 60 minutes following inhalation
structure (smiles),measurement,setting,value
"CCCCCc1cc(O)c2c(c1)OC(C)(C)[C@@H]1CCC(C)=C[C@@H]21 [Δ9-THC, Δ9-tetrahydrocannabinol]",mean area under the curve of plasma concentration vs. time from 0 to infinity (AUC0→infinity),[1]; [2],300 ± 144 ng/min/mL
same,time upon which maximum plasma concentration was reached (Tmax),[1]; [2],3.7 ± 1.4 min
same,mean maximum plasma Δ9-THC concentration (Cmax) ±SD,"[1]; single inhalation of 0.5 mg Δ9-THC, vaporized ground cannabis, 22 of 27 patients analysed",14.3 ± 7.7 ng/mL
same,AUC0→infinity,[1]; [3],769 ± 331 ng/min/mL
same,Cmax ±SD,[1]; [3],33.8 ± 25.7 ng/mL
same,Tmax,[1]; [3],4.4 ± 2.1 min
same,maximum change in VAS pain score,chronic pain; [4],1.95 points
same,maximum change in VAS pain score (percent),chronic pain; [4],24%
same,decline in pain intensity compared to placebo,"chronic pain; 0.5 mg Δ9-THC dose, follow-up period",greater decline in pain intensity
same,maximum change in VAS pain score,chronic pain; [5],2.95 points
same,maximum change in VAS pain score (percent),chronic pain; [5],39.4%
same,reduction in VAS compared to placebo (0 mg) and 0.5 mg,"chronic pain; 1 mg dose, 15 minutes after inhalation and onward, RM-ANOVA p=0.0015 vs placebo, p=0.0058 vs 0.5 mg",statistically significantly larger
